Legend:
NOX3 [1] = target: T1, NOX3 (Homo sapiens, UniProt Q9HBY0); test: Amplex Red/HRP H2O2 detection in tetracycline-induced NOX3 HEK293 T-REx cells; format: cell-based
T1 sequence (Q9HBY0 1-568): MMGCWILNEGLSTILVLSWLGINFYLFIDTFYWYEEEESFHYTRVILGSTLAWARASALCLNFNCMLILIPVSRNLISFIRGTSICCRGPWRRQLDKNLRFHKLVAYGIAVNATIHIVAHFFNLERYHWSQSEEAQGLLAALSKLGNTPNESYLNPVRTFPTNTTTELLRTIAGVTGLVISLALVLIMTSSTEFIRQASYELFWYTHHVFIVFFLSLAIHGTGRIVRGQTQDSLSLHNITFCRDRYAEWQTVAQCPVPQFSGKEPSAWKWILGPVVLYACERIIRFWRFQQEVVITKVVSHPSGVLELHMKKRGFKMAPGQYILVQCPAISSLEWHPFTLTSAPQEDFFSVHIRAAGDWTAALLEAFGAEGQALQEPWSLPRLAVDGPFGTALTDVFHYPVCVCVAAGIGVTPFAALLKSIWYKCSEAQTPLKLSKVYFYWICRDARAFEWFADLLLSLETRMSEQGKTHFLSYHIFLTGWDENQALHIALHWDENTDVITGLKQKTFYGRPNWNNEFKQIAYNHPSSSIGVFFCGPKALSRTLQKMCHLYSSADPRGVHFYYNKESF
T1 sequence (P13498 1-195 partner): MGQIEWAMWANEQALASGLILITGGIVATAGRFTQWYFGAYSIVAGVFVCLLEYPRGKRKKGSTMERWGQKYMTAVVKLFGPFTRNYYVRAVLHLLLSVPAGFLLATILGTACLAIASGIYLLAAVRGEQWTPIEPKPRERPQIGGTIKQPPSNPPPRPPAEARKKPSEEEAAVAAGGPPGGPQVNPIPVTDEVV
T1 sequence (Q8NFA2 1-376 partner): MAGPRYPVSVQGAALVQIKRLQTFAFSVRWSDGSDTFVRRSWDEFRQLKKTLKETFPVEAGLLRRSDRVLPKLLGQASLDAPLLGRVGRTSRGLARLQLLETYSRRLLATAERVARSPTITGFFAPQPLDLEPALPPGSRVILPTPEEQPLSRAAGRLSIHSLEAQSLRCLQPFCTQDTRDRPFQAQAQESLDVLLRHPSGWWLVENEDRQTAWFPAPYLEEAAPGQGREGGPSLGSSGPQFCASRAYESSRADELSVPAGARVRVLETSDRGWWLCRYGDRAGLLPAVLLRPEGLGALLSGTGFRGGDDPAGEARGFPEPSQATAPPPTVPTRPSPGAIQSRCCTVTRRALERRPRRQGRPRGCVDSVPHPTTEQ
Description: (§1) Compounds were dispensed prior addition of cells.

[2] = DPPH free radical scavenging assay (absorbance); details: cell-free, DPPH in methanol, 15 min; read-out: Scavenging effect IC50 Absorbance DPPH
NOX2 = target: T2, NOX2 (Homo sapiens, UniProt P04839); test: NOX2-dependent oxygen consumption in PMA-activated human neutrophils (Seahorse); format: cell-based; details: 100 nM PMA
T2 sequence (P04839 2-570 limits assumed): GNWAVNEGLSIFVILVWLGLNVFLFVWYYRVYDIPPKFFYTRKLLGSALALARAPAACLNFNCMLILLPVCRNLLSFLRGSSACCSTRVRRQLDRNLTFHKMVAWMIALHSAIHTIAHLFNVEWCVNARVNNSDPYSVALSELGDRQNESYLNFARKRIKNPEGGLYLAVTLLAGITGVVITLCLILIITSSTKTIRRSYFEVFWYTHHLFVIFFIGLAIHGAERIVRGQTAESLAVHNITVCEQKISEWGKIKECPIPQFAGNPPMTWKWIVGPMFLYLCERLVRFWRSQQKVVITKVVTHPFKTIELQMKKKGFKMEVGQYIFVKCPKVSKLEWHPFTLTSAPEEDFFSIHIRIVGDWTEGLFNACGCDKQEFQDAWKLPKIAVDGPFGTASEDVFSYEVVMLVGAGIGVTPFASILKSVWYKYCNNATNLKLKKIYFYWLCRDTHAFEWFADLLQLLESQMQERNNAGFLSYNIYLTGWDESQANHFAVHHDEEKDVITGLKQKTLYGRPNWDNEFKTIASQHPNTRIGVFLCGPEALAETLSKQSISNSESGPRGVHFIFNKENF
T2 sequence (P13498 1-195 partner): T1 sequence (P13498 1-195 partner)
Procedure: Human polymorphonuclear leukocytes (PMN) were isolated from fresh whole blood collected from healthy volunteers as described. Briefly, 32 mL blood was collected in 8 mL sodium citrate (3.8%) and blood cells sedimented for 40 min with dextran T500 (4% in NaCl 0.9%). The upper yellowish fraction containing leukocytes was collected and centrifugated at 380×g for 10 min. Pellets were resuspended in PBS and separated using Ficoll Plaque™ Plus (450 ×g , with no brake) for 15 min, RT. Red blood cells were lysed by addition of 5 mL H2O for 30 s followed by addition of 5 mL NaCl 1.8%. Remaining PMN were collected by centrifugation for 10 min at 250 ×g , washed and resuspended in HBSS, counted and kept on ice for a maximum of 30 min until they were used for oxygen consumption measurement.
Oxygen consumption was determined using human neutrophils and NOX4 T-Rex HEK293 cells using the Seahorse XF24 Extracellular Flux Analyzer. Neutrophils were plated in 24-well microplates (250,000 cells/well in 200 μL HBSS) and incubated at room temperature for 15 min for attachment. The medium was changed to DMEM without sodium bicarbonate containing 10 mM Hepes prewarmed to 37 °C, and the cells were incubated for 30 min at 37 °C in a non-CO2 incubator. Basal oxygen consumption was recorded for 8 min followed by addition of compounds and 8 min preincubation. PMA (100 nM) was added where indicated and the oxygen consumption rate was determined for two cycles of 8 min each. The signal obtained from neutrophils without PMA treatment was subtracted as a blank, while the signal obtained from PMA + DMSO-treated neutrophils was considered as 100%.

[3] = Cell-free CBA assay with 10 μM H2O2 (H2O2 scavenging); details: 10 μM H2O2, 800 μM CBA
NOX3 [4] = target: T1, NOX3; test: WST-1 O2•- detection in tetracycline-induced NOX3 HEK293 T-REx cells; format: cell-based
Description: as §1

in vitro = details: human
[5] = Amplex red/HRP, tetracycline 1 μg/mL 24 h, read-out: IC50 NOX3 (T-REx) AR
[6] = WST-1, tetracycline 1 μg/mL 24 h, read-out: IC50 NOX3 (T-REx) WST-1

IC50 (NOX3 [1]; [5]) [µM]	IC50 [2] [µM]	Inhibition of NOX2-dependent oxygen consumption (NOX2; compound 300 μM)	IC50 (NOX3 [4]; [6]) [µM]	Inhibition of NOX2-dependent oxygen consumption (NOX2; compound 50 μM)	SMILES	Effect on CBA signal (direct scavenging of H2O2) ([3]; at high concentration)	CC50 at 1 h (in vitro) [µM]	IC50 (NOX3 [1]) [µM]	Inhibition of NOX2-dependent oxygen consumption (NOX2; concentration not given)	IC50 (NOX3 [4]) [µM]	Effect on CBA signal (direct scavenging of H2O2) ([3]; serial dilutions)	CC50 at 1 h (in vitro; HEK/T-REx cells) [µM]
> 50	> 50	only weakly	> 50	–	COc1cc(C(C)=O)ccc1O [Apocynin, apocynin]	inhibited the CBA signal	> 50	–	–	–	–	–
> 50	> 50	–	> 50	only weakly	COc1cc(C(C)=O)cc(-c2cc(C(C)=O)cc(OC)c2O)c1O [Diapocynin, diapocynin]	–	–	–	–	–	inactive	> 50
5.7	21.7	–	> 50	not	Cc1c2c(=O)n(-c3ccccc3Cl)[nH]c2cc(=O)n1Cc1ccccn1 [GKT136901]	–	–	–	–	–	not scavenging H2O2	> 50

SMILES	IC50 (NOX3 [1]; [5]) [µM]	IC50 [2] [µM]	Inhibition of NOX2-dependent oxygen consumption (NOX2; compound 300 μM)	IC50 (NOX3 [4]; [6]) [µM]	Inhibition of NOX2-dependent oxygen consumption (NOX2; compound 50 μM)	Effect on CBA signal (direct scavenging of H2O2) ([3]; at high concentration)	CC50 at 1 h (in vitro) [µM]	IC50 (NOX3 [1]) [µM]	Inhibition of NOX2-dependent oxygen consumption (NOX2; concentration not given)	IC50 (NOX3 [4]) [µM]	Effect on CBA signal (direct scavenging of H2O2) ([3]; serial dilutions)	CC50 at 1 h (in vitro; HEK/T-REx cells) [µM]
c1ccc2c(c1)[I+]c1ccccc1-2 [DPI, diphenylene iodonium chloride]	–	> 50	–	–	–	–	> 50	2.2	inhibited	0.2	–	–
O=c1c2ccccc2[se]n1-c1ccccc1 [Ebselen, ebselen]	2.9	> 50	–	35	–	–	–	–	inhibited	–	inhibited the CBA signal	1.8
c1ccc(Cn2nnc3c(Sc4nc5ccccc5o4)ncnc32)cc1 [VAS2870, 3-benzyl-7-(2-benzoxazolyl)thio-1,2,3-triazolo[4,5-d]pyrimidine]	> 50	–	–	> 50	–	–	–	–	inhibited	–	–	–

— article PMC6658998, “Pharmacological characterization of the seven human NOX isoforms and their inhibitors” (Redox Biology, 2019)
